Assay results from patent publication US20230013602A1, “NOVEL IMIDAZOPYRAZINE DERIVATIVES” (Hoffmann-La Roche Inc., priority 2018, published 2023).
Counter-ions that a name gives are not always drawn.

Assays:
[1] = system: Acinetobacter baumannii ATCC 17978; assay: Antimicrobial susceptibility testing, 90% growth inhibitory concentration (IC90) determination; type: cell-based; settings: Acinetobacter baumannii ATCC17978, Iso-Sensitest broth, OD 600 nm over 16 h
Protocol: (§1) The in vitro antimicrobial activity of the compounds was determined according to the following procedure:
(§2) The assay used a 10-points Iso-Sensitest broth medium to measure quantitatively the in vitro activity of the compounds against Acinetobacter baumannii ATCC 17978 and Acinetobacter baumannii ATCC17961.
(§3) Stock compounds in DMSO were serially twofold diluted (e.g. range from 50 to 0.097 μM final concentration) in 384 wells microtiter plates and inoculated with 49 μl the bacterial suspension in Iso-Sensitest medium to have a final cell concentration of ˜5×10^(5) CFU/ml in a final volume/well of 50 ul/well. Microtiter plates were incubated at 35+2° C.
(§4) Bacterial cell growth was determined with the measurement of optical density at X=600 nm each 20 minutes over a time course of 16 h. Growth inhibition was calculated during the logarithmic growth of the bacterial cells with determination of the concentration inhibiting 50% (IC50) and 90% (IC90) of the growth.
(§5) Table 1 provides the 90% growth inhibitory concentrations (IC90) in micromoles per liter of the compounds of present invention obtained against the strain Acinetobacter baumannii ATCC17978 and Acinetobacter baumannii ATCC17961.

[2] = system: Acinetobacter baumannii ATCC17961; assay: as above; type: cell-based; settings: 90% growth inhibitory concentration, Acinetobacter baumannii ATCC17961, Iso-Sensitest broth, OD 600 nm over 16 h; read-out: ATCC17961 IC90
Protocol: as §1, §2, §3, §4, §5

IC90 [1] | IC90 [2] | Structure (SMILES)
63 nM | 62 nM | COc1ccc(-c2cnc3c(Nc4ccc(C(=O)N[C@H]5C[C@@H](N)C5)c(C)c4)nccn23)c(F)c1F [Example 35, N-(3-aminocyclobutyl)-4-[[3-(2,3-difluoro-4-methoxyphenyl)imidazo[1,2-a]pyrazin-8-yl]amino]-2-methylbenzamide]
290 nM | 288 nM | CCc1cc(Nc2nccn3c(-c4ccc(OC)c(F)c4F)cnc23)ccc1C(=O)NC1CCC1N (stereo not shown) [Example 39, N-(2-aminocyclobutyl)-4-[[3-(2,3-difluoro-4-methoxyphenyl)imidazo[1,2-a]pyrazin-8-yl]amino]-2-ethylbenzamide]
53 nM | 53 nM | COc1ccc(-c2cnc3c(Nc4ccc(C(=O)N[C@H]5CC[C@@H](N)CC5)c(C)c4)nccn23)c(F)c1F [Example 31, N-(4-aminocyclohexyl)-4-[[3-(2,3-difluoro-4-methoxyphenyl)imidazo[1,2-a]pyrazin-8-yl]amino]-2-methylbenzamide]
72 nM | 72 nM | COc1ccc(-c2cnc3c(Nc4ccc(C(=O)NC5CCC(NC(=O)[C@@H]6C[C@@H](O)CN6)C5)c(C)c4)nccn23)c(F)c1F (mixture of isomers) [Example 36, rac-(2R,4S)-N-[3-[[4-[[3-(2,3-difluoro-4-methoxyphenyl)imidazo[1,2-a]pyrazin-8-yl]amino]-2-methylbenzoyl]amino]cyclopentyl]-4-hydroxypyrrolidine-2-carboxamide]
54 nM | 54 nM | COc1ccc(-c2cnc3c(Nc4ccc(C(=O)N[C@H]5CC[C@@H](NC(=O)[C@@H]6C[C@@H](O)CN6)CC5)c(C)c4)nccn23)c(F)c1F [Example 34, (2S,4R)-N-[4-[[4-[[3-(2,3-difluoro-4-methoxyphenyl)imidazo[1,2-a]pyrazin-8-yl]amino]-2-methylbenzoyl]amino]cyclohexyl]-4-hydroxypyrrolidine-2-carboxamide]
66 nM | 66 nM | COc1ccc(-c2cnc3c(Nc4ccc(C(=O)NC5CCN(C(=O)[C@@H]6C[C@@H](O)CN6)CC5)c(C)c4)nccn23)c(F)c1F [Example 32, 4-[[3-(2,3-difluoro-4-methoxyphenyl)imidazo[1,2-a]pyrazin-8-yl]amino]-N-[1-[(2S,4R)-4-hydroxypyrroIidine-2-carbonyl]piperidin-4-yl]-2-methylbenzamide]
99 nM | 99 nM | CCc1cc(Nc2nccn3c(-c4ccc(OC)c(F)c4F)cnc23)ccc1C(=O)N[C@H]1C[C@@H](NC(=O)[C@@H](N)CCCNC(=N)N)C1 [Example 37, N-[3-[[(2S)-2-amino-5-carbamimidamidopentanoyl]amino]cyclobutyl]-4-[[3-(2,3-difluoro-4-methoxyphenyl)imidazo[1,2-a]pyrazin-8-yl]amino]-2-ethylbenzamide;2,2,2-trifluoroacetic acid]
290 nM | 290 nM | COc1ccc(-c2cnc3c(Nc4ccc(C(=O)N(C)CCC(=O)N5CCNCC5)c(C)c4)nccn23)cc1F [Reference Example 10, 4-[[3-(3-fluoro-4-methoxy-phenyl)imidazo[1,2-a]pyrazin-8-yl]amino]-N,2-dimethyl-N-(3-oxo-3-piperazin-1-yl-propyl)benzamide]
160 nM | 162 nM | COc1ccc(-c2cnc3c(Nc4ccc(C(=O)N[C@@H]5CCNC5)c(C)c4)nccn23)c(F)c1F [Example 38, 4-[[3-(2,3-difluoro-4-methoxyphenyl)imidazo[1,2-a]pyrazin-8-yl]amino]-2-methyl-N-[(3R)-pyrrolidin-3-yl]benzamide]
75 nM | 75 nM | COc1ccc(-c2cnc3c(Nc4ccc(C(=O)N[C@H]5CC[C@@H](NC(=C(C)C)N(C)C)CC5)c(C)c4)nccn23)c(F)c1F [Example 33, 4-[[3-(2,3-difluoro-4-methoxyphenyl)imidazo[1,2-a]pyrazin-8-yl]amino]-N-[4-[[1-(dimethylamino)-2-methylprop-1-enyl]amino]cyclohexyl]-2-methylbenzamide;formic acid]
600 nM |  | COc1ccc(-c2cnc3c(Nc4ccc(C(=O)NC5CCN(C6CCS(=O)(=O)CC6)CC5)c(C)c4)nccn23)cc1F [Example 24, N-[1-(1,1-dioxothian-4-yl)piperidin-4-yl]-4-[[3-(3-fluoro-4-methoxyphenyl)imidazo[1,2-a]pyrazin-8-yl]amino]-2-methylbenzamide]

Further lines, the compound ahead of its results:

Structure (SMILES) | IC90 [1] | IC90 [2]
CCc1cc(Nc2nccn3c(-c4ccc(OC)c(F)c4F)cnc23)ccc1C(=O)NC1(CNC(=N)N)CC1 [Example 18, N-[1-(carbamimidamidomethyl)cyclopropyl]-4-[[3-(2,3-difluoro-4-methoxyphenyl)imidazo[1,2-a]pyrazin-8-yl]amino]-2-ethylbenzamide] | 84 nM | 83 nM
CCc1cc(Nc2nccn3c(-c4ccc(OC)c(F)c4F)cnc23)ccc1C(=O)NC1(CN)CC1 [Example 4, N-(1-(aminomethyl)cyclopropyl)-4-((3-(2,3-difluoro-4-methoxyphenyl)imidazo[1,2-a]pyrazin-8-yl)amino)-2-ethylbenzamide hydrochloride] | 320 nM | 274 nM
CCc1cc(Nc2nccn3c(-c4ccc(OC)c(F)c4F)cnc23)ccc1C(=O)NC1(CNC(C)=N)CC1 [Example 19, 4-[[3-(2,3-difluoro-4-methoxyphenyl)imidazo[1,2-a]pyrazin-8-yl]amino]-N-[1-[(ethanimidoylamino)methyl]cyclopropyl]-2-ethylbenzamide] | 150 nM | 154 nM
CCc1cc(Nc2nccn3c(-c4ccc(OC)c(F)c4F)cnc23)ccc1C(=O)N[C@H]1C[C@@H](N)C1 [Example 11, Cis N-(3-aminocyclobutyl)-4-[[3-(2,3-difluoro-4-methoxy-phenyl)imidazo[1,2-a]pyrazin-8-yl]amino]-2-ethyl-benzamide] | 84 nM | 84 nM
CCc1cc(Nc2nccn3c(-c4ccc(OC)c(F)c4F)cnc23)ccc1C(=O)N[C@H]1CC[C@@H](NC(=O)[C@@H](N)CCCNC(=N)N)CC1 [Example 5, N-[4-[[(2S)-2-amino-5-guanidino-pentanoyl]amino]cyclo-hexyl]-4-[[3-(2,3-difluoro-4-methoxy-phenyl)imidazo[1,2-a]pyrazin-8-yl]amino]-2-ethyl-benzamide trifluoroacetate] | 180 nM | 176 nM
CCc1cc(Nc2nccn3c(-c4ccc(OC)c(F)c4F)cnc23)ccc1C(=O)N[C@H]1CC[C@@H](N)CC1 [Example 6, Cis-N-(4-aminocyclohexyl)-4-[[3-(2,3-difluoro-4-methoxy-phenyl)imidazo[1,2-a]pyrazin-8-yl]amino]-2-ethyl-benzamide] | 88 nM | 88 nM
CCc1cc(Nc2nccn3c(-c4ccc(OC)c(F)c4F)cnc23)ccc1C(=O)N[C@@H]1CCCC[C@@H]1N (racemic) [Example 8, rac-N-((1R,2S)-2-aminocyclohexyl)-4-((3-(2,3-difluoro-4-methoxyphenyl)imidazo[1,2-a]pyrazin-8-yl)amino)-2-ethylbenzamide] | 850 nM | 852 nM
CCc1cc(Nc2nccn3c(-c4ccc(OC)c(F)c4F)cnc23)ccc1C(=O)NC1CNC1 [Example 12, N-(azetidin-3-yl)-4-[[3-(2,3-difluoro-4-methoxy-phenyl)imidazo[1,2-a]pyrazin-8-yl]amino]-2-ethyl-benzamide] | 230 nM | 230 nM
CCc1cc(Nc2nccn3c(-c4ccc(OC)c(F)c4F)cnc23)ccc1C(=O)NC1CCNCC1 [Example 13, 4-[[3-(2,3-difluoro-4-methoxy-phenyl)imidazo[1,2-a]pyrazin-8-yl]amino]-2-ethyl-N-(4-piperidyl)benzamide] | 280 nM | 276 nM
CCc1cc(Nc2nccn3c(-c4ccc(OC)c(F)c4F)cnc23)ccc1C(=O)N[C@H]1CCC[C@@H]1N [Example 9, N-((1S,2S)-2-aminocyclopentyl)-4-((3-(2,3-difluoro-4-methoxyphenyl)imidazo[1,2-a]pyrazin-8-yl)amino)-2-ethylbenzamide] | 300 nM | 297 nM
CCc1cc(Nc2nccn3c(-c4ccc(OC)c(F)c4F)cnc23)ccc1C(=O)N[C@H]1C[C@H](N)C1 [Example 14, N-(3-aminocyclobutyl)-4-[[3-(2,3-difluoro-4-methoxy-phenyl)imidazo[1,2-a]pyrazin-8-yl]amino]-2-ethyl-benzamide] | 250 nM | 248 nM
